Drawing on ChEMBL document CHEMBL5137033, “Development of sulfonamide-based NLRP3 inhibitors: Further modifications and optimization through structure-activity relationship studies” (Eur J Med Chem, 2022), this text covers Drug uptake for one molecule.

Data set [1] is described as follows: Drug uptake in iv dosed C57BL/6 mouse blood measured after 60 mins. The following applies: in vivo, 1 h.
Data set [2] is described as follows: Drug uptake in iv dosed C57BL/6 mouse Brainstem measured after 60 mins by PET/CT imaging analysis. It counts as ADME, organism-based. The following applies: in vivo, 1 h.
The nature of data set [3]: Drug uptake in iv dosed C57BL/6 mouse brain cortex measured after 60 mins by PET/CT imaging analysis. As to conditions: in vivo, 1 h; call rule not given here. In kind it is ADME, organism-based.
Data set [4] can be described thus: Drug uptake in iv dosed C57BL/6 mouse liver measured after 3 min by PET/CT imaging analysis. In kind it is ADME, organism-based. As to conditions: in vivo, 0.05 h.
Data set [5] is described as follows: Drug uptake in iv dosed C57BL/6 mouse brain striatum measured after 60 mins by PET/CT imaging analysis. In kind it is ADME, organism-based. As to conditions: in vivo, 1 h.
Data set [6] can be described thus: Drug uptake in iv dosed C57BL/6 mouse lung measured after 1 min by PET/CT imaging analysis. The following applies: in vivo. It counts as ADME, organism-based.
Data set [7] in a line: Drug uptake in iv dosed C57BL/6 mouse brain thalamus measured after 60 mins by PET/CT imaging analysis. In kind it is ADME, organism-based. The following applies: in vivo, 1 h.
A short description of data set [8]: Drug uptake in iv dosed C57BL/6 mouse kidney measured after 3 min by PET/CT imaging analysis. It counts as ADME, organism-based. As to conditions: in vivo, 0.05 h.
The nature of data set [9]: Drug uptake in iv dosed C57BL/6 mouse brain cerebellum measured after 60 mins by PET/CT imaging analysis. In kind it is ADME, organism-based. The following applies: in vivo, 1 h.
A short description of data set [10]: Drug uptake in iv dosed C57BL/6 mouse lung measured after 60 mins. As to conditions: in vivo, 1 h.
Data set [11] in a line: Drug uptake in iv dosed C57BL/6 mouse hippocampus measured after 60 mins by PET/CT imaging analysis. In kind it is ADME, organism-based. As to conditions: in vivo, 1 h.
Data set [12] is described as follows: Drug uptake in iv dosed C57BL/6 mouse blood measured after 1 min by PET/CT imaging analysis. The following applies: in vivo. It counts as ADME, organism-based.
A short description of data set [13]: Drug uptake in iv dosed C57BL/6 mouse brain measured after 60 mins by PET/CT imaging analysis. In kind it is ADME, organism-based. As to conditions: in vivo, 1 h.
The nature of data set [14]: Drug uptake in iv dosed C57BL/6 mouse liver measured after 60 mins. The following applies: in vivo, 1 h.
The nature of data set [15]: Drug uptake in iv dosed C57BL/6 mouse Midbrain measured after 60 mins by PET/CT imaging analysis. In kind it is ADME, organism-based. As to conditions: in vivo, 1 h.
Data set [16] can be described thus: Uptake in iv dosed C57BL/6 mouse kidney measured after 60 mins. As to conditions: in vivo, 1 h.

On to `C#CCNS(=O)(=O)c1ccc(CCN(Cc2cc(Cl)ccc2OCCC)C(=O)c2ccc([18F])cc2)cc1`, for which the Drug uptake in data set [1] is on record as 4.2 %ID/cc; in data set [2], “Active”; in data set [3], “Active”; in [4] it was 18.1 %ID/cc; in data set [5] it was “Active”; in data set [6], 22.6 %ID/cc. In addition, the Drug uptake entry is “Active” in data set [7]; 20 %ID/cc in data set [8]; “Active” in data set [9]; 4.7 %ID/cc in data set [10]; “Active” in data set [11]; 30.1 %ID/cc in [12]. Further, the Drug uptake was 1.8 %ID/cc in [13], 12 %ID/cc in data set [14], “Active” in data set [15] and 12.3 %ID/cc in [16].
